Data on 12 molecules can be found in US10934297B2, “5-heteroaryl substituted indazole-3-carboxamides and preparation and use thereof” (Samumed, LLC, priority 2018, dated 2021).

One assay concerns IL-6. The experiment in a line: IL-6 inhibition in LPS-stimulated human peripheral blood mononuclear cells (HTRF). In kind it is cell-based. Particulars: Homo sapiens, PBMC; for EC50: huPBMCs, LPS 50 ng/mL, 22 hours, IL-6 HTRF. On the procedure:
Fresh Normal PB MNC (Catalog #PB001, AllCells, Alameda, Calif.) were shipped overnight at 4° C. and resuspended in Roswell Park Memorial Institute (RPMI) 1640 Medium, with GlutaMAX Supplement (Catalog #61870127, ThermoFisher Scientific, Waltham, Mass.) supplemented with 1% Penicillin-Streptomycin (Catalog #15140163. ThermoFisher Scientific, Waltham, Mass.) and 1% fetal bovine serum (FBS) (Catalog #16140089, ThermoFisher Scientific, Waltham, Mass.) assay media. Fresh normal human peripheral blood mononuclear cells (huPBMCs) were resuspended in 1% FBS-RPMI assay media with 1% Penicillin-Streptomycin 1% to a cell concentration of 1×10e6 cells/mL. […] 50 ng/mL of Lipopolysaccharides from Escherichia coli 0111:B4 (Catalog #L5293-2ML, Sigma-Aldrich, St. Louis, Mo.) was added after 2 hours and cells were incubated for another 22 hours at 37° C.-5% CO2. After 22 hour incubation, a mixture of anti-IL6 XL665 and anti-IL-6 Cryptate diluted in reconstitution buffer (Catalog #62IL6PEC, Cisbio Inc., Bedford, Mass.) was added to each well. Following incubation for 3 hours at room temperature, Homogeneous Time-Resolved Fluorescence (HTRF) was measured using the Envision (Perkin Elmer, Shelton, Conn.) at 665 nm and […]. The ratio of fluorescence at 665 nm to 620 nm was used as a readout for IL-6 quantification. All samples were processed in duplicate. Readings were normalized to DMSO treated cells and normalized activities were utilized for EC50 calculations.
(In TR-FRET formats the signal depends on donor and acceptor labels being close together.)

Assay [1] deals with Wnt activity (Sp5-Luc reporter in SW480 cells). In words: Screening assay for Wnt activity: Sp5-Luc reporter gene assay in SW480 colon carcinoma cells. In kind it is cell-based, human. Particulars: Homo sapiens, 36 to 48 hours. From the text: The screening assay for Wnt activity is described as follows. Reporter cell lines can be generated by stably transducing cancer cell lines (e.g., colon cancer) or primary cells (e.g., IEC-6 intestinal cells) with a lentiviral construct that includes a Wnt-responsive promoter driving expression of the firefly luciferase gene.
SW480 colon carcinoma cells were transduced with a lentiviral vector expressing luciferase with a human Sp5 promoter consisting of a sequence of eight TCF/LEF binding sites. SW480 cells stably expressing the Sp5-Luc reporter gene and a hygromycin resistance gene were selected by treatment with 150 μg/mL of hygromycin for 7 days. These stably transduced SW480 cells were expanded in cell culture and used for all further screening activities. […] For Sp5-Luc reporter gene assays, the cells were plated at 4,000 cells/well in 384-well plates with a DMEM medium containing 1% fetal bovine serum, and 1% Penicillin-Streptomycin and incubated for 36 to 48 hours at 37° C. and 5% CO2. Following incubation, 15 μl of BriteLite Plus luminescence reagent (Perkin Elmer) was added to each well of the 384-well assay plates. The plates were placed on an orbital shaker for 2 min and then luminescence was quantified using the Envision (Perkin Elmer) plate reader. Readings were normalized to DMSO only treated cells, and normalized activities were utilized for EC50 calculations using the dose-response log (inhibitor) vs. response-variable slope (four parameters) nonlinear regression feature available in GraphPad Prism 5.0 (or Dotmatics).
(Reporter assays use an easily measured gene product as a stand-in for the process of interest.)

The next assay addresses DYRK1A kinase (Homo sapiens (Human), UniProt Q13627). In words: DYRK1A kinase assay (Ser/Thr 18 peptide Z-lyte FRET). It counts as biochemical. Particulars: read-out: EC50 (method: IC50). On the procedure:
Representative compounds were screened using the assay procedure for DYRK1A kinase activity as described below.
This is a non-radioactive assay using fluorescence resonance energy transfer (FRET) between coumarin and fluorescein to detect kinase activity which is represented as a ratio of coumarin emission/fluorescein emission.
The mixture was allowed to incubate with the representative compounds for one hour at room temperature. All reactions were performed in duplicate. Unphosphorylated (“0% Control”) and phosphorylated (“100% control”) forms of Ser/Thr 18 served as control reactions. Additionally, an 11-point dose-response curve of Staurosporine (1 uM top) was run to serve as a positive compound control.
After incubation, Development Reagent A was diluted in Development Buffer then added to the reaction and allowed to further incubate for one hour at room temperature.

Another assay deals with GSK3β kinase (Homo sapiens (Human), UniProt P49841). In words: GSK3β kinase assay (Ser/Thr 09 peptide Z-lyte FRET). It counts as biochemical. The note with it: read-out: EC50 (method: IC50). On the procedure:
Representative compounds were screened using the assay procedure for GSK3β kinase activity as described below.
This is a non-radioactive assay using fluorescence resonance energy transfer (FRET) between coumarin and fluorescein to detect kinase activity which is represented as ratio of coumarin emission/fluorescein emission.
The mixture is allowed to incubate with the representative compounds for one hour at room temperature. All reactions were performed in duplicate. Unphosphorylated (“0% Control”) and phosphorylated (“100% control”) forms of Ser/Thr 18 serve as control reactions.
After incubation, diluted Development Buffer is added to the reaction and allowed to further incubate for one hour at room temperature.
Dose-response curves are generated and inhibitory concentration (IC50) values are calculated using non-linear regression curve fit in the Dotmatics' Studies Software (Bishops Stortford, UK).

The subject of assay [2] is SW480 colon carcinoma cells. The experiment in a line: Cell viability assay (CellTiter-Glo) in SW480 colon carcinoma cells. In kind it is cell-based, human. The note with it: Homo sapiens, 96 h, four days. On the procedure:
Representative compounds were screened using the assay procedure to assess the effect on cell viability as described below.
SW480 colon carcinoma cells were transduced with a lentiviral vector expressing luciferase with a human Sp5 promoter consisting of a sequence of eight TCF/LEF binding sites. SW480 cells stably expressing the Sp5-Luc reporter gene and a hygromycin resistance gene were selected by treatment with 150 μg/mL of hygromycin for 7 days. These stably transduced SW480 cells were expanded in cell culture and used for all further screening activities.
For the Cell Viability Assays, the cells were plated at 2,000 cells/well in 384-well plates with a DMEM medium containing 1% fetal bovine serum, and 1% Penicillin-Streptomycin and incubated for […] at 37° C. and 5% CO2. Eight replicates of DMSO-treated cells served as controls and cells treated with compound were performed in duplicate.
After incubation, 10 μL of CellTiter-Glo (Promega) was added to each well allowed to incubate for approximately 12 minutes. This reagent “results in cell lysis and generation of a luminescent signal proportional to the amount of ATP present. The amount of ATP is directly proportional to the number of cells present in culture, in agreement with previous reports. The CellTiter-Glo® Assay generates a “glow-type” luminescent signal, produced by the luciferase reaction (Promega.com)”.
For orientation: ATP-based viability assays read luminescence as a measure of living cells.

The test system of assay [3] is primary human fibroblasts derived from IPF patients (LL29 cells). In words: Inhibition of the fibrotic process: αSMA staining in TGF-β1 treated LL29 fibroblasts. It counts as cell-based. The note with it: Homo sapiens, Fibroblast, 96 h; LL29 cells, TGF-β1 20 ng/mL, 4 days, % αSMA positive cells. On the procedure:
Representative compounds were screened using primary human fibroblasts (derived from IPF patients) treated with TGF-β1 to determine their ability to inhibit the fibrotic process.
LL29 cells were plated at 1,500 cells/well in 70 μL/well F12 medium supplemented with 1% Fetal Bovine Serum. […] Wells treated with TGF-β1 and containing DMSO were used as positive control, and cells with only DMSO were negative control. […] Following incubation for 4 days, SYTOX green nucleic acid stain (Life Technologies [Thermo Fisher Scientific]) was added to the wells at a final concentration of 1 μM and incubated at room temperature for 30 min.

The structures appear in SMILES notation.

A word on the EC50: it is the midpoint of the concentration-response curve. High values mean a need for much substance, low ones an effect from little substance. Broadly, the IC50 is the concentration that gives 50% inhibition. Usually inhibition stands for how much of the control response was suppressed.

GSK3β kinase, sequence (P49841 whole entry): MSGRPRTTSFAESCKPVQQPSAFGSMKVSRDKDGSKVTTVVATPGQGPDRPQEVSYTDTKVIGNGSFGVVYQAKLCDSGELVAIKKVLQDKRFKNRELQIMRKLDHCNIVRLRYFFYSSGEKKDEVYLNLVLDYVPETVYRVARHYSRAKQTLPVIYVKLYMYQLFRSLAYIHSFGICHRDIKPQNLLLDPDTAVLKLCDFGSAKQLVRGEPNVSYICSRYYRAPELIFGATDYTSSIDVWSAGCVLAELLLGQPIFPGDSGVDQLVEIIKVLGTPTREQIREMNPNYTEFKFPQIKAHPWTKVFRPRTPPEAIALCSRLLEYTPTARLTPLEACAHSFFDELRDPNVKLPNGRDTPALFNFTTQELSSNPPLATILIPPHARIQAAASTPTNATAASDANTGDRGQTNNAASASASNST

Turning to `CC(C)CNC(=O)c1n[nH]c2ccc(-c3cn[nH]c3)cc12` [Compound 1, N-Isobutyl-5-(1H-pyrazol-4-yl)-1H-indazole-3-carboxamide], the EC50 in the assay with IL-6 was 1170 nM; in assay [1], 358 nM; in assay [2] it was 2580 nM; in assay [3], 160 nM. Besides, the IC50 was 30 nM on DYRK1A kinase and 28 nM on GSK3β kinase.

In the case of `CC(C)CNC(=O)c1n[nH]c2ccc(-c3cnn(C)c3)cc12` [Compound 2, N-Isobutyl-5-(1-methyl-1H-pyrazol-4-yl)-1H-indazole-3-carboxamide], the EC50 came out at 3010 nM in the assay with IL-6, 819 nM in assay [1], 5980 nM in assay [2] and 75 nM in assay [3]. The IC50 at DYRK1A kinase is 25 nM; on GSK3β kinase, 11 nM.

Turning to `C[C@@H](NC(=O)c1n[nH]c2ccc(-c3cnn(C)c3)cc12)C(F)(F)F` [Compound 3, (R)-5-(1-Methyl-1H-pyrazol-4-yl)-N-(1,1,1-trifluoropropan-2-yl)-1H-indazole-3-carboxamide], the EC50 is 9070 nM in the assay on IL-6, above 10000 nM in assay [1], 8950 nM in assay [2] and 2580 nM in assay [3]. For the same molecule, the IC50 was found to be 134 nM at DYRK1A kinase and 106 nM at GSK3β kinase.

On to `C[C@H](NC(=O)c1n[nH]c2ccc(-c3cnn(C)c3)cc12)C(F)(F)F` [Compound 4, (S)-5-(1-Methyl-1H-pyrazol-4-yl)-N-(1,1,1-trifluoropropan-2-yl)-1H-indazole-3-carboxamide], for which the EC50 came out at 2890 nM in the assay with IL-6, 3840 nM in assay [1], 2550 nM in assay [2] and 171 nM in assay [3]. Further, the figures for the IC50 on DYRK1A kinase and on GSK3β kinase were 26 nM and 24 nM, respectively.

Turning to `Cn1cc(-c2ccc3[nH]nc(C(=O)NCCC(F)(F)F)c3c2)cn1` [Compound 5, 5-(1-Methyl-1H-pyrazol-4-yl)-N-(3,3,3-trifluoropropyl)-1H-indazole-3-carboxamide], the EC50 worked out at 2940 nM in the assay with IL-6, 655 nM in assay [1], 2520 nM in assay [2] and 151 nM in assay [3]. Besides, the IC50 was determined as 25 nM at DYRK1A kinase and 8 nM at GSK3β kinase.

For the molecule `Cn1cc(-c2cc(F)c3[nH]nc(C(=O)NCCC(F)(F)F)c3c2)cn1` [Compound 6, 7-Fluoro-5-(1-methyl-1H-pyrazol-4-yl)-N-(3,3,3-trifluoropropyl)-1H-indazole-3-carboxamide], the EC50 with IL-6 is above 10000 nM; in assay [1] it was 325 nM; in assay [2], 737 nM; in assay [3], 148 nM. The inhibition at 10 µM in the assay with IL-6 (read-out: percent inhibition at 10 μM) turned out to be 37.8%. Besides, the IC50 at DYRK1A kinase was 207 nM; on GSK3β kinase it was 15 nM.

`CC(C)NC(=O)c1n[nH]c2ccc(-c3cnn(C4CCNCC4)c3)cc12` [Compound 7, N-Isopropyl-5-(1-(piperidin-4-yl)-1H-pyrazol-4-yl)-1H-indazole-3-carboxamide]: the EC50 in the assay with IL-6 was 2010 nM; in assay [1], 2600 nM; in assay [2] it was 5600 nM; in assay [3], above 10000 nM. Further, the IC50 at DYRK1A kinase was determined as 55 nM; on GSK3β kinase it was 255 nM.

For the molecule `Cn1cc(-c2ccc3[nH]nc(C(=O)NCC4CCC(F)(F)CC4)c3c2)cn1` [Compound 8, N-((4,4-Difluorocyclohexyl)methyl)-5-(1-methyl-1H-pyrazol-4-yl)-1H-indazole-3-carboxamide], the EC50 was found to be 3360 nM in the assay on IL-6, 565 nM in assay [1], 511 nM in assay [2] and 146 nM in assay [3]. Also, the IC50 on DYRK1A kinase amounted to 31 nM; at GSK3β kinase, 22 nM.

For `Cn1cc(-c2ccc3[nH]nc(C(=O)N[C@@H]4CCCC[C@H]4F)c3c2)cn1` [Compound 9, N-((1R,2R)-2-Fluorocyclohexyl)-5-(1-methyl-1H-pyrazol-4-yl)-1H-indazole-3-carboxamide], the EC50 amounted to 1090 nM in the assay with IL-6, 1980 nM in assay [1], 1330 nM in assay [2] and 324 nM in assay [3]. Besides, the IC50 was 18 nM on DYRK1A kinase and 6 nM at GSK3β kinase.

With `Cn1cc(-c2cc3c(C(=O)N[C@@H]4CCCC[C@H]4F)n[nH]c3cc2F)cn1` [Compound 10, 6-Fluoro-N-((1R,2R)-2-fluorocyclohexyl)-5-(1-methyl-1H-pyrazol-4-yl)-1H-indazole-3-carboxamide], the EC50 in the assay with IL-6 is 903 nM; in assay [1], 3400 nM; in assay [2], 1080 nM; in assay [3], 331 nM. Also, the IC50 at DYRK1A kinase turned out to be 16 nM; at GSK3β kinase, 9 nM.

Turning to `Cn1cc(-c2cc(F)c3[nH]nc(C(=O)N[C@@H]4CCCC[C@H]4F)c3c2)cn1` [Compound 11, 7-Fluoro-N-((1R,2R)-2-fluorocyclohexyl)-5-(1-methyl-1H-pyrazol-4-yl)-1H-indazole-3-carboxamide], the EC50 is 3320 nM in the assay with IL-6, above 10000 nM in assay [1], 1940 nM in assay [2] and above 10000 nM in assay [3]. For the same molecule, the IC50 stood at 198 nM on DYRK1A kinase and 20 nM at GSK3β kinase.

Take `Cn1cc(-c2cc3c(C(=O)Nc4ccc(CN5CCOCC5)cc4)n[nH]c3cc2F)cn1` [Compound 77, 6-Fluoro-5-(1-methyl-1H-pyrazol-4-yl)-N-(4-(morpholinomethyl)phenyl)-1H-indazole-3-carboxamide]: the EC50 was determined as 411 nM in assay [1], 2830 nM in assay [2] and 291 nM in assay [3]. Further, the IC50 at DYRK1A kinase was 4 nM; at GSK3β kinase, 26 nM.
